# Results reported in patent EP0791056B1, “LIPID-CLEAVAGE ENZYME COMPLEX” (priority 1994, dated 1996).
# Test system: Phosphodiesterase aus Schlangengift
# Assay: Enzymatic cleavage of AZT-DMDOPE, detection of cleavage products by thin-layer chromatography
# Type: biochemical
# Details: 10 mg AZT-DMDOPE in 0,1 M Tris, 0,5 mg enzyme, 15 h + 6 h at 37 °C
structure (smiles),measurement,value
"CCCCCCCCCCCCSCC(COP(=O)(O)OC[C@H]1O[C@@H](n2cc(C)c(=O)[nH]c2=O)C[C@@H]1N=[N+]=[N-])OCCCCCCCCCC (stereo partly shown) [AZT-DMDOPE, (3'-Desoxy-3'-azidothymidin)-5'-phosphorsäure-(3-dodecyl-mercapto-2-decyloxy)-propylester]",Fluoreszenzauslöschung DC,negativ
